Results published in US9102671B2, “Compounds and compositions as TRK inhibitors” (Novartis AG, priority 2011, dated 2015).

What was measured:
[1] = tested on: parental (untransformed) Ba/F3 cells; experiment: Ba/F3 cell proliferation, BAF3/WT (parental, IL3); format: cell-based, murine; conditions: Mus musculus, inhibition of proliferation of parental cells with IL3, 48 hours, Bright-Glo luminescence
Procedure: (§1) Test compounds were dissolved in DMSO (10 mM) and transferred into 1.4 mL flat bottom or V-shaped Matrix tubes carrying a unique 2D matrix chip by individual compound hubs. The numbers of these chips were distinctively linked to the individual compound identification numbers. The stock solutions were stored at −20° C. if not used immediately. For the test procedure the vials were defrosted and identified by a scanner whereby a working sheet is generated that guides the subsequent working steps.
(§2) Compound dilutions were made in 384 well plates. This format enabled the assay of maximally 28 individual test compounds at 11 concentrations (single points) including 2 reference compounds. The dilution protocol included the production of pre-dilution plates, master plates and assay plates: • Compound plates: 30 μL of individual compound (10 mM) DMSO solution including reference compound were transferred into columns 1 and 13 of a 384 well plate. 20 μL of DMSO were added to the rest of the wells and the compounds were serially diluted (1:3) by transferring 10 μL from a well in column 1 or 13 to the next well in column 2 or 14 respectively and successively with the help of a Minitrack robot. • Assay plates: Identical assay plates were then prepared by adding 50 nL each of compound dilutions of the compound plates into 384-well “assay plates”. In the following the compounds were mixed with 50 μL of assays components (cells or enzyme) and tested for their inhibitory activity.
Compounds were tested for their ability to inhibit the proliferation of wt Ba/F3 cells and Ba/F3 cells transformed with constitutively expressed luciferase reporter and BCR-ABL or Tel-FMS or other Tel fusion kinases (EGFR, JAK2, ALK, BMX, FGFR3, FGFR4, FGR2, FLT1, FLT3, IGF1R, INSR, KDR, KIT, LCK, LYN, MEK, MET, PDGFRα, PDGFRβ, RET, RON, ROS, SRC, SYK, TIE and TYRO) or BRafV600E. Parental Ba/F3 cells were maintained in media containing recombinant mouse IL3 and the kinase transformed Ba/F3 cells were maintained in media without IL-3. 7.5 nl of compounds were spotted to each well of 1536-well assay plates by Liquid handling System Echo 555 (Labcyte). 700 cells were then plated into each well of the assay plates in 7 uL culture media per well and compounds were tested at 0.17 nM to 10 uM in 3-fold serial dilutions. The cells were then incubated for 48 hours at 37° C. 3 uL of Bright-Glo® (Promega) was added to each well and the plates were read using ViewLux (PerkinElmer).
The cell line used is the luciferase expressing Ba/F3 murine hematopoietic progenitor cell line transformed with human Tel-TrkA, Tel-TrkB or Tel-TrkC cDNAs (Ba/F3 EN A/B/C). These cells maintained in RPMI/10% fetal bovine serum (RPMI/FCS) supplemented with penicillin 50 mg/mL, streptomycin 50 mg/mL and L-glutamine 200 mM. Untransformed Ba/F3 cells were similarly maintained with the addition 5 ng/ml of murine recombinant IL3. 50 μl of a Ba/F3 or Ba/F3 EN A/B/C cell suspension were plated in Greiner 384 well microplates (white)) at a density of 2000 cells per well. 50 nl of serially diluted test compound (10-0.0001 mM in DMSO solution) is added to each well. The cells were incubated for 48 hours at 37° C., 5% CO2. 25 μl of Bright Glo® (Promega) luciferase substrate is added to each well. The emited luminiscence is quantified using ViewLux (PerkinElmer). IC50 values were calculated by linear regression analysis of the percentage inhibition of each compound at 11 concentrations. […]

[2] = target: T1, Ba/F3 cells co-expressing full length rTrkA and mNGF (Rattus norvegicus, UniProt P35739); experiment: Ba/F3 cell proliferation, BaF3/TRKA-NGF; format: cell-based; conditions: inhibition of proliferation, 48 hours, Bright-Glo luminescence
T1 construct: co-expressing full length rTrkA and mNGF; expressed in transfected cells; host or cells: Ba/F3 murine hematopoietic progenitor cells
T1 sequence (P35739 33-799): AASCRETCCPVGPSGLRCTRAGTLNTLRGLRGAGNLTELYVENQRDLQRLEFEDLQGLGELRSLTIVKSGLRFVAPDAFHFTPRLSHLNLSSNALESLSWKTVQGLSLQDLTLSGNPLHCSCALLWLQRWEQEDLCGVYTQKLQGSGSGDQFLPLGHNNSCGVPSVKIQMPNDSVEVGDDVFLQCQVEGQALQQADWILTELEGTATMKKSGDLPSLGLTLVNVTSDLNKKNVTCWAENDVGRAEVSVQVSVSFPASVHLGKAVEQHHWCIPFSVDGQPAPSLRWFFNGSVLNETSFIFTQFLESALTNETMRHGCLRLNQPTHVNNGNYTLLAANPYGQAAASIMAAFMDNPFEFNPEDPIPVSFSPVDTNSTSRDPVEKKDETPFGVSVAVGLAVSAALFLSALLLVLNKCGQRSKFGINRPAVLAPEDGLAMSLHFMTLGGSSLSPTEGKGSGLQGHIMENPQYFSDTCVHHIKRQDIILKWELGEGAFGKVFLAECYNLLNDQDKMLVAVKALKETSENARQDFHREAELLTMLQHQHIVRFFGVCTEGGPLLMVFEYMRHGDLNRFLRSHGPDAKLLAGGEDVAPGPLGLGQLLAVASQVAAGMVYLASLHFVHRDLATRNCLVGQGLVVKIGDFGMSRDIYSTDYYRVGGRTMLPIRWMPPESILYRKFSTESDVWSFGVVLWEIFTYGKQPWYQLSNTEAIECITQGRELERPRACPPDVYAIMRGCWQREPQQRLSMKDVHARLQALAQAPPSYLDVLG
T1 sequence (P01139 122-241 partner): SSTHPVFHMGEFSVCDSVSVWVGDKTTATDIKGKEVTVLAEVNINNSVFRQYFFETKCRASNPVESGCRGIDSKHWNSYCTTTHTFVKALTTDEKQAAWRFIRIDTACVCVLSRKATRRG

[3] = target: T2, Ba/F3 cells transformed with human Tel-TrkA (Homo sapiens, UniProt P04629); experiment: Ba/F3 cell proliferation, Ba/F3 Tel-TrkA; format: cell-based; conditions: inhibition of proliferation, 48 hours, Bright-Glo luminescence; read-out: Ba/F3Tel-TrkA
T2 construct: expressed in transfected cells; host or cells: luciferase expressing Ba/F3 murine hematopoietic progenitor cell line; the other entry of the earlier key: ETV6 (P41212, Transcription factor ETV6)
T2 sequence (P04629 510-796 limits assumed): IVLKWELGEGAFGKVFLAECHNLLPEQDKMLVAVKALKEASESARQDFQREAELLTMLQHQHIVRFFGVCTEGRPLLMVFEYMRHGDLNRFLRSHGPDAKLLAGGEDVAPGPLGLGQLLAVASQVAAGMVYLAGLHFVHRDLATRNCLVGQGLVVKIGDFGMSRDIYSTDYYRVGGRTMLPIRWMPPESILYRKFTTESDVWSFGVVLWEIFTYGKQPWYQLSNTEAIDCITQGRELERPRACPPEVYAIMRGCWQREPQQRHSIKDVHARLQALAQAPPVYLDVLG
Procedure: as §1, §2
The cell line used is the luciferase expressing Ba/F3 murine hematopoietic progenitor cell line transformed with human Tel-TrkA, Tel-TrkB or Tel-TrkC cDNAs (Ba/F3 EN A/B/C). These cells maintained in RPMI/10% fetal bovine serum (RPMI/FCS) supplemented with penicillin 50 mg/mL, streptomycin 50 mg/mL and L-glutamine 200 mM. Untransformed Ba/F3 cells were similarly maintained with the addition 5 ng/ml of murine recombinant IL3. 50 μl of a Ba/F3 or Ba/F3 EN A/B/C cell suspension were plated in Greiner 384 well microplates (white)) at a density of 2000 cells per well. 50 nl of serially diluted test compound (10-0.0001 mM in DMSO solution) is added to each well. The cells were incubated for 48 hours at 37° C., 5% CO2. 25 μl of Bright Glo® (Promega) luciferase substrate is added to each well. The emited luminiscence is quantified using ViewLux (PerkinElmer). IC50 values were calculated by linear regression analysis of the percentage inhibition of each compound at 11 concentrations.
In certain examples compounds of Formula (I) have IC50 values from 0.1 nM 1 μM. In other examples, compounds of Formula (I) have IC50 values from 0.0001 μM to 0.8 μM. In other examples, compounds of Formula (I) have IC50 values from 0.0001 μM to 0.6 μM. In other examples, compounds of Formula (I) have IC50 values from 0.0001 μM to 0.4 μM. In other examples, compounds of Formula (I) have IC50 values from 0.0001 μM to 0.2 μM. In other examples, compounds of Formula (I) have IC50 values from 0.0001 μM to 0.1 μM. In other examples, compounds of Formula (I) have IC50 values from 0.0001 μM to 0.08 μM. In other examples, compounds of Formula (I) have IC50 values from 0.0001 μM to 0.06 μM. In other examples, compounds of Formula (I) have IC50 values from 0.0001 μM to 0.04 μM. In other examples, compounds of Formula (I) have IC50 values from 0.0001 μM to 0.02 μM. In other examples, compounds of Formula (I) have IC50 values from 0.0001 μM to 0.01 μM. In other examples, compounds of Formula (I) have IC50 values from 0.01 μM to 1 μM.

In the case of `O=C(Nc1cnn2ccc(N3C[C@@H](F)C[C@@H]3c3cccc(F)c3)cc12)OCc1ccccc1` [Example X-21, benzyl (5-((2R,4S)-4-fluoro-2-(3-fluorophenyl)pyrrolidin-1-yl)pyrazolo[1,5-a]pyridin-3-yl)carbamate], the IC50 [1] is reported as over 10000 nM, the IC50 [2] is reported as 179 nM and the IC50 [3] is reported as 177 nM.
`NC(=O)c1cc(F)cc([C@H]2CC(F)(F)CN2c2ccn3ncc(C(N)=O)c3c2)c1` [Example X-9, (R)-5-(2-(3-carbamoyl-5-fluorophenyl)-4,4-difluoropyrrolidin-1-yl)pyrazolo[1,5-a]pyridine-3-carboxamide] gave an IC50 [1] of over 10000 nM, an IC50 [2] of 48 nM and an IC50 [3] of 37 nM.
For `N#C[C@H]1C[C@H](c2cccc(F)c2)N(c2ccn3ncc(C(N)=O)c3c2)C1` [Example X-25, 5-((2R,4S)-4-cyano-2-(3-fluorophenyl)pyrrolidin-1-yl)pyrazolo[1,5-a]pyridine-3-carboxamide], the IC50 [1] was over 10000 nM, the IC50 [2] was 58 nM and the IC50 [3] was 125 nM.
`CCOC(=O)c1cnn2ccc(N3CC(F)(F)C[C@@H]3c3cc(F)cc(C#N)c3)cc12` [Example X-8, (R)-ethyl 5-(2-(3-cyano-5-fluorophenyl)-4,4-difluoropyrrolidin-1-yl)pyrazolo[1,5-a]pyridine-3-carboxylate] was tested, and the IC50 [1] was over 10000 nM, the IC50 [2] was 19 nM and the IC50 [3] was 17 nM.
In the case of `CN1CCN(c2ccn3ncc(C(N)=O)c3c2)C(c2ccccc2)C1` (centres unmarked) [Example X-29], the IC50 [1] is reported as over 10000 nM, the IC50 [2] is reported as over 10000 nM and the IC50 [3] is reported as over 10000 nM.
In the case of `NC(=O)c1cnn2ccc(N3C[C@H](O)C[C@@H]3c3cccc(F)c3)cc12` [Example X-24, 5-[(2R,4R)-2-(3-fluorophenyl)-4-hydroxypyrrolidin-1-yl]pyrazolo[1,5-a]pyridine-3-carboxamide], the IC50 [1] is reported as over 10000 nM, the IC50 [2] is reported as 119 nM and the IC50 [3] is reported as 395 nM.
`CCOC(=O)c1cnn2ccc(N3C[C@@H](F)C[C@@H]3c3cccc(F)c3)cc12` [Example X-1, ethyl 5-((2R,4S)-4-fluoro-2-(3-fluorophenyl)pyrrolidin-1-yl)pyrazolo[1,5-a]pyridine-3-carboxylate] showed an IC50 [1] of 4100 nM and an IC50 [2] of 1 nM.
`CN(C)C(=O)c1cnn2ccc(N3C[C@@H](F)C[C@@H]3c3cccc(F)c3)cc12` [Example X-15, 5-[(2R,4S)-4-fluoro-2-(3-fluorophenyl)pyrrolidin-1-yl]-N,N-dimethylpyrazolo[1,5-a]pyridine-3-carboxamide] was tested, and the IC50 [1] was over 10000 nM, the IC50 [2] was 43 nM and the IC50 [3] was 50 nM.
Work on `NC(=O)c1cnn2ccc(N3CCCC3c3ccccc3C(F)(F)F)cc12` (centres unmarked) [Example X-13, 5-{2-[2-(trifluoromethyl)phenyl]pyrrolidin-1-yl}pyrazolo[1,5-a]pyridine-3-carboxamide] yielded an IC50 [1] of over 10000 nM, an IC50 [2] of 341 nM and an IC50 [3] of 712 nM.
With `CC(C)(C)NC(=O)c1cnn2ccc(N3C[C@@H](F)C[C@@H]3c3cccc(F)c3)cc12` [Example X-16, N-tert-butyl-5-[(2R,4S)-4-fluoro-2-(3-fluorophenyl)pyrrolidin-1-yl]pyrazolo[1,5-a]pyridine-3-carboxamide] the IC50 [1] was over 10000 nM, the IC50 [2] was 6 nM and the IC50 [3] was 5 nM.
`NC(=O)c1cnn2ccc(N3CCCCC3c3cccc(F)c3)cc12` (centres unmarked) [Example X-12, 5-[2-(3-fluorophenyl)piperidin-1-yl]pyrazolo[1,5-a]pyridine-3-carboxamide] was tested, and the IC50 [1] was over 10000 nM, the IC50 [2] was 97 nM and the IC50 [3] was 225 nM.
Molecule `NC(=O)c1cnn2ccc(N3C[C@@H](C(N)=O)C[C@@H]3c3cccc(F)c3)cc12` [Example X-26, 5-((2R,4S)-4-carbamoyl-2-(3-fluorophenyl)pyrrolidin-1-yl)pyrazolo[1,5-a]pyridine-3-carboxamide] has an IC50 [1] of over 10000 nM, an IC50 [2] of 232 nM and an IC50 [3] of 443 nM.
`NC(=O)Nc1cnn2ccc(N3C[C@@H](F)C[C@@H]3c3cccc(F)c3)cc12` [Example X-23, 1-(5-((2R,4S)-4-fluoro-2-(3-fluorophenyl)pyrrolidin-1-yl)pyrazolo[1,5-a]pyridin-3-yl)urea] was tested, and the IC50 [1] was over 10000 nM, the IC50 [2] was 176 nM and the IC50 [3] was 154 nM.
`Cc1ccc(C)c(C2CCCN2c2ccn3ncc(C(N)=O)c3c2)c1` (centres unmarked) [Example X-28] gave an IC50 [1] of over 10000 nM, an IC50 [2] of 1090 nM and an IC50 [3] of 2140 nM.
`CC(C)NC(=O)c1ccc(F)cc1C1CC(F)(F)CN1c1ccn2ncc(C(N)=O)c2c1` (centres unmarked) [Example X-18, 5-(4,4-difluoro-2-{5-fluoro-2-[(propan-2-yl)carbamoyl]phenyl}pyrrolidin-1-yl)pyrazolo[1,5-a]pyridine-3-carboxamide] was tested, and the IC50 [1] was over 10000 nM, the IC50 [2] was 7 nM and the IC50 [3] was 7 nM.
`N#Cc1cc(F)cc([C@H]2CC(F)(F)CN2c2ccn3ncc(C(N)=O)c3c2)c1` [Example X-11, (R)-5-(2-(3-cyano-5-fluorophenyl)-4,4-difluoropyrrolidin-1-yl)pyrazolo[1,5-a]pyridine-3-carboxamide] was tested, and the IC50 [1] was over 10000 nM, the IC50 [2] was 24 nM and the IC50 [3] was 21 nM.
`NC(=O)c1cnn2ccc(N3C[C@@H](F)C[C@@H]3c3cccc(F)c3)cc12` [Example X-5, 5-((2R,4S)-4-fluoro-2-(3-fluorophenyl)pyrrolidin-1-yl)pyrazolo[1,5-a]pyridine-3-carboxamide] gave an IC50 [1] of over 10000 nM, an IC50 [2] of 7 nM and an IC50 [3] of 6 nM.
`O=C(NCCO)c1cnn2ccc(N3C[C@@H](F)C[C@@H]3c3cccc(F)c3)cc12` [Example X-17, 5-[(2R,4S)-4-fluoro-2-(3-fluorophenyl)pyrrolidin-1-yl]-N-(2-hydroxyethyl)pyrazolo[1,5-a]pyridine-3-carboxamide] gave an IC50 [1] of over 10000 nM, an IC50 [2] of 14 nM and an IC50 [3] of 9 nM.
